Data: PubChem BioAssay AID1963829 (Molecular Pharmacology Branch, DTP, NCI, 2024)
“And” between values parts separate entries of the source, which are not always exact repeats. Equal values may be shown once.

Tested on: 935938-334-R-J1-PDC complex spheroid viability
Assay: Anticancer human tumor 935938-334-R-J1-PDC patient-derived small intestine adenocarcinoma cell line growth inhibition [POLQ]
Conditions: for viability, T/C: stronger effect = lower value
How it was run: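 Three-cell-type spheroids modelling solid tumor plus stroma served as the readout system; POL inhibitors were tested individually and in combination, concentration ranges set by clinical Cmax where known.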
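Note: spheroids exposed to drugs for seven days before viability read.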
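Throughout, for viability, T/C: 100% = DMSO vehicle control wells.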

For `CC(=O)O[C@H]1C(=O)[C@@]2(C)[C@H]([C@H](OC(=O)c3ccccc3)[C@]3(O)C[C@H](OC(=O)[C@H](O)[C@@H](NC(=O)c4ccccc4)c4ccccc4)C(C)=C1C3(C)C)[C@]1(OC(C)=O)CO[C@@H]1C[C@@H]2O` + COC1C(OC(N)=O)C(O)C(Oc2ccc3c(O)c(NC(=O)c4ccc(O)c(CC=C(C)C)c4)c(=O)oc3c2C)OC1(C)C, the IC50 (curve of first compound, second compound 0.0316 µM) was < 9.49 nM, the IC50 (curve of first compound, second compound 0.1 µM) was < 9.49 nM and the IC50 (curve of first compound, second compound 0.316 µM) was < 9.49 nM. The IC50 (curve of first compound, second compound 1 µM) was < 9.49 nM, the IC50 (curve of first compound, second compound 3.16 µM) was < 9.49 nM and the IC50 (curve of first compound, second compound 10 µM) was < 9.49 nM. It also gave a viability, T/C (second compound 0.0316 µM, first compound 0.00949 µM) of 33.5%, a viability, T/C (second compound 0.0316 µM, first compound 0.03 µM) of 21.4% and a viability, T/C (second compound 0.0316 µM, first compound 0.0949 µM) of 14.8%. For the same compound, the viability, T/C (second compound 0.0316 µM, first compound 0.3 µM) was 16.4%, the viability, T/C (second compound 0.0316 µM, first compound 0.949 µM) was 16.6% and the viability, T/C (second compound 0.0316 µM, first compound 3 µM) was 19.3%. For the same compound, the viability, T/C (second compound 0.1 µM, first compound 0.00949 µM) was 35.7%, the viability, T/C (second compound 0.1 µM, first compound 0.03 µM) was 21.5% and the viability, T/C (second compound 0.1 µM, first compound 0.0949 µM) was 16.9%. The viability, T/C (second compound 0.1 µM, first compound 0.3 µM) was 17.5%, the viability, T/C (second compound 0.1 µM, first compound 0.949 µM) was 16.5% and the viability, T/C (second compound 0.1 µM, first compound 3 µM) was 18.1%. The viability, T/C (second compound 0.316 µM, first compound 0.00949 µM) was 37.9%, the viability, T/C (second compound 0.316 µM, first compound 0.03 µM) was 18.4% and the viability, T/C (second compound 0.316 µM, first compound 0.0949 µM) was 16.6%. The viability, T/C (second compound 0.316 µM, first compound 0.3 µM) was 13.8%, the viability, T/C (second compound 0.316 µM, first compound 0.949 µM) was 17.9% and the viability, T/C (second compound 0.316 µM, first compound 3 µM) was 18.2%. It also gave a viability, T/C (second compound 1 µM, first compound 0.00949 µM) of 34.6%, a viability, T/C (second compound 1 µM, first compound 0.03 µM) of 19.5% and a viability, T/C (second compound 1 µM, first compound 0.0949 µM) of 17.4%. For the same compound, the viability, T/C (second compound 1 µM, first compound 0.3 µM) was 17.2%, the viability, T/C (second compound 1 µM, first compound 0.949 µM) was 16.2% and the viability, T/C (second compound 1 µM, first compound 3 µM) was 16.6%. It also gave a viability, T/C (second compound 3.16 µM, first compound 0.00949 µM) of 32.8%, a viability, T/C (second compound 3.16 µM, first compound 0.03 µM) of 21.3% and a viability, T/C (second compound 3.16 µM, first compound 0.0949 µM) of 14.9%. It also gave a viability, T/C (second compound 3.16 µM, first compound 0.3 µM) of 18.2%, a viability, T/C (second compound 3.16 µM, first compound 0.949 µM) of 17.5% and a viability, T/C (second compound 3.16 µM, first compound 3 µM) of 18.4%. It also gave a viability, T/C (second compound 10 µM, first compound 0.00949 µM) of 36.6%, a viability, T/C (second compound 10 µM, first compound 0.03 µM) of 19.9% and a viability, T/C (second compound 10 µM, first compound 0.0949 µM) of 14.4%. The viability, T/C (second compound 10 µM, first compound 0.3 µM) was 16.6%, the viability, T/C (second compound 10 µM, first compound 0.949 µM) was 14.6% and the viability, T/C (second compound 10 µM, first compound 3 µM) was 16.4%.
With `Cn1ncnc1[C@H]1c2n[nH]c(=O)c3cc(F)cc(c23)N[C@@H]1c1ccc(F)cc1` the viability, T/C (compound 0.000316 µM) was 87.9% and 80.8% and 110%, the viability, T/C (compound 0.001 µM) was 83.2% and 90.4% and 112% and the viability, T/C (compound 0.00316 µM) was 82.5% and 83.7% and 85.8%. For the same compound, the viability, T/C (compound 0.01 µM) was 93.8% and 99.9% and 105%, the viability, T/C (compound 0.0316 µM) was 113% and 94.7% and 116% and the viability, T/C (compound 0.1 µM) was 99.4% and 96.1% and 76.1%. For the same compound, the IC50 (curve of compound) was > 100 nM.
